Source: publication PMC6891756, “Synthesis and Biological Evaluation of Novel Aminochalcones as Potential Anticancer and Antimicrobial Agents” (Molecules, 2019)
In brackets after ≈: the same amount, converted by molar mass.

Experiments:
[1] = tested on: HT-29; test: SRB antiproliferative assay, HT-29; format: cell-based, human; conditions: Homo sapiens, HT-29; SRB, 48 h, 1–100 µg·mL^−1; ND = not detected in the tested concentration range
Experimental: (§1) Anticancer activity was evaluated using the sulforhodamine B assay (SRB) on four different human colon cancer cell lines: HT-29, LS180, LoVo and LoVo/DX and green monkey kidney fibroblasts COS7 (ATCC, Manassas, VA, USA). Cell lines HT-29 and COS7 were cultured in α-MEM medium (IIET PAS, Wrocław, Poland), LS180 in OptiMEM medium (IIET PAS), LoVo and LoVo/DX in mixture of α-MEM and OptiMEM medium (1:1 (v:v)). Each culture medium was supplemented with 10% fetal bovine serum, 2 mM glutamine, 100 μg·mL^−1 penicillin, 100 μg·mL^−1 streptomycin and 0.25 μg·mL^−1 amphotericin (all supplements purchased from Gibco (Paisley, UK). Cells were incubated at 37 °C, 5% CO2 in HeraCELL 150i incubator (Thermo Fisher Scientific, Waltham, MA, USA).
(§2) For the SRB assay, cells were seeded onto 96-well plates (Sarstedt, Nümbrecht, Germany) at a density of 5·10^3/well and cultured overnight as described above. Then, the growth medium was gently removed and replaced with fresh medium, supplemented with aminochalcone derivatives in the concentration ranging from 1 µg·mL^−1 to 100 µg·mL^−1. All stock solutions were prepared in DMSO at a concentration of 10 mg·mL^−1. Cells were incubated for 48 h and then the SRB assay was performed as described previously. Each experiment was performed in quadruplicate. The final results were reported as the IC50 values calculated for three independent experiments. Cisplatin (Acros Organics, Waltham, MA, USA) and doxorubicin (Fisher BioReagents, Waltham, MA, USA) were used as positive controls of the test.

[2] = tested on: LS180; test: SRB antiproliferative assay, LS180; format: cell-based, human; conditions: Homo sapiens, LS180, 48 h, 1–100 µg·mL^−1, ND = not detected in the tested concentration range
Experimental: as §1, §2

[3] = tested on: Escherichia coli ATCC10536; test: MIC evaluation (broth method), E. coli; format: cell-based; conditions: 48–72 h, read-out: Minimal inhibitory concentration E. coli
Experimental: (§3) Sterile 96-well microtiter plates (Sarstedt) with nutrient broth (for bacteria) (Biocorp) or YM medium (for yeast and filamentous fungi) were inoculated with a standardized cell suspension of bacteria and yeast or fungal spores of 10^5 cell·mL^−1, and supplemented with aminochalcones dissolved in DMSO. […] All analysis were conducted in triplicates. The plates were incubated at 30 °C (bacteria and yeast) or 25 °C (filamentous fungi) for 48–72 h. The results were measured with the Spark® Multimode Microplate Reader (Tecan, Männedorf, Switzerland) at a 560 nm wavelength. The minimal inhibitory concentration was defined as the lowest concentration of a tested compound that completely restricted the growth of the microorganism. In order to verify the obtained results, microbial cultures subjected to each concentration of aminochalcone were inoculated onto nutrient agar or YM plates and incubated as described above. The lack of growth on agar plate was a confirmation of the MIC of the tested compound. The resulting MIC values were compared with the reference substances: oxytetracycline (against bacteria), cycloheximide (against yeast) and nystatin (against fungi) (Sigma Aldrich).

[4] = tested on: Staphylococcus aureus DSM799; test: Microbial growth curve screening, S. aureus; format: cell-based; conditions: 0.1% (w/v); for ∆OD S. aureus: OD at 560 nm, control 1.67; for Lag-phase S. aureus: control 2.5 h
Experimental: (§4) The antimicrobial screening tests were performed on two strains of bacteria: E. coli ATCC10536 and S. aureus DSM799, strain of yeast C. albicans DSM1386 and three strains of fungi: F. linii KB-F1, A. alternata CBS1526 and A. niger DSM1957. All microorganisms were obtained from the collection of the Faculty of Biotechnology and Food Microbiology, Wrocław University of Environmental and Life Sciences. The bacteria were cultured in nutrient broth (Biocorp, Warsaw, Poland), yeast and fungi in YM medium (3 g yeast extract, 3 g malt extract, 5 g bacteriological peptone and 10 g of glucose dissolved in 1 L of distilled water). The tests were carried out in 100-well microtiter plates. To each well 280 μL of culture medium, 10 μL of microorganism suspension and 10 μL of aminochalcone (1–18) dissolved in dimethyl sulfoxide (3% (w/v)) were added. The final concentration of the tested compound (1–18) was 0.1% (w/v). Each experiment were performed in 3 replications. The optical density of the cell suspension was measured on Bioscreen C (Automated Growth Curve Analysis System Lab System, Vantaa, Finland) at 560 nm automatically, at regular intervals of 30 min for 2–3 days. Cell cultures were maintained at 28 °C on a continuous shaker. To prepare the growth curves for each strain, the mean values of the absorbance in a function of time were used. The resulting antimicrobial activity was expressed as the increase of optical density (ΔOD) and was compared to that of the control cultures in the medium supplemented with dimethyl sulfoxide and also with reference substances: oxytetracycline (against bacteria), cycloheximide (against yeast) and nystatin (against fungi) (Sigma Aldrich).

[5] = tested on: LoVo; test: SRB antiproliferative assay, LoVo; format: cell-based, human; conditions: Homo sapiens, LoVo, 48 h, 1–100 µg·mL^−1, ND = not detected in the tested concentration range
Experimental: as §1, §2

[6] = SRB assay, normal fibroblasts COS7; format: cell-based, green monkey; conditions: green monkey, COS7 kidney fibroblasts (normal cell line), ND = not detected in the tested concentration range
Experimental: as §1, §2

[7] = tested on: Aspergillus niger DSM1957; test: MIC evaluation (broth method), A. niger; format: cell-based; conditions: Aspergillus niger, DSM1957, 48–72 h, read-out: Minimal inhibitory concentration A. niger
Experimental: as §3

[8] = tested on: Fusarium linii KB-F1; test: Microbial growth curve screening, F. linii; format: cell-based; conditions: 0.1% (w/v); for ∆OD F. linii: OD at 560 nm, control 1.95; for Lag-phase F. linii: control 13.5 h
Experimental: as §4

[9] = tested on: Alternaria alternata CBS1526; test: MIC evaluation (broth method), A. alternata; format: cell-based; conditions: Alternaria alternata, CBS1526, 48–72 h, read-out: Minimal inhibitory concentration A. alternata
Experimental: as §3

[10] = tested on: Escherichia coli ATCC10536; test: Microbial growth curve screening, E. coli; format: cell-based; conditions: 0.1% (w/v), OD at 560 nm, control 1.61
Experimental: as §4

[11] = tested on: LoVo/DX; test: SRB antiproliferative assay, LoVo/DX; format: cell-based, human; conditions: Homo sapiens, LoVo/DX, 48 h, 1–100 µg·mL^−1, ND = not detected in the tested concentration range
Experimental: as §1, §2

[12] = tested on: Candida albicans DSM1386; test: Microbial growth curve screening, C. albicans; format: cell-based; conditions: 0.1% (w/v); for ∆OD C. albicans: OD at 560 nm, control 1.58; for Lag-phase C. albicans: control 3.0 h
Experimental: as §4

[13] = tested on: Alternaria alternata CBS1526; test: Microbial growth curve screening, A. alternata; format: cell-based; conditions: 0.1% (w/v); for Lag-phase A. alternata: control 16.5 h; for ∆OD A. alternata: OD at 560 nm, control 1.86
Experimental: as §4

[14] = tested on: Aspergillus niger DSM1957; test: Microbial growth curve screening, A. niger; format: cell-based; conditions: 0.1% (w/v); for Lag-phase A. niger: control 11.0 h; for ∆OD A. niger: OD at 560 nm, control 2.14
Experimental: as §4

[15] = tested on: Staphylococcus aureus DSM799; test: MIC evaluation (broth method), S. aureus; format: cell-based; conditions: 48–72 h, read-out: Minimal inhibitory concentration S. aureus
Experimental: as §3

[16] = tested on: Candida albicans DSM1386; test: MIC evaluation (broth method), C. albicans; format: cell-based; conditions: DSM1386, broth method, 48–72 h, read-out: Minimal inhibitory concentration C. albicans
Experimental: as §3

SMILES | IC50 [1] [µg/mL] | IC50 [2] [µg/mL] | MIC [3] [µg/mL] | ∆OD S. aureus [4] | Lag-phase S. aureus [4] [h] | IC50 [5] [µg/mL] | IC50 at 48 h [6] [µg/mL] | MIC [7] [µg/mL] | ∆OD F. linii [8] | Lag-phase F. linii [8] [h] | MIC [9] [µg/mL] | melting point [°C] | ∆OD E. coli [10] | IC50 [11] [µg/mL] | ∆OD C. albicans [12] | Lag-phase C. albicans [12] [h] | Lag-phase A. alternata [13] [h] | Lag-phase A. niger [14] [h] | ∆OD A. alternata [13] | ∆OD A. niger [14] | other results
COc1cc(/C=C/C(=O)c2cccc(N)c2)ccc1OCc1ccccc1 [Compound 17, 3′-Amino-4-benzyloxy-3-methoxychalcone] | 2.9 ± 0.27 (≈ 8.07 µM) | 3.76 ± 0.38 (≈ 10.5 µM) | 0.125 (≈ 0.348 µM) | 0.36 | 33.5 | 1.71 ± 0.13 (≈ 4.76 µM) | 3.45 ± 0.22 (≈ 9.6 µM) | 1 (≈ 2.78 µM) | 0.24 | 11.0 | 1 (≈ 2.78 µM) | 38 | 0.0 | 1.77 ± 0.09 (≈ 4.92 µM) | 0.55 | 9.0 | – | – | – | – | –
Nc1cccc(C(=O)/C=C/c2ccc(OCc3ccccc3)cc2)c1 [Compound 14, 3′-Amino-4-benzyloxychalcone] | 7.54 ± 0.18 (≈ 22.9 µM) | 6.51 ± 0.62 (≈ 19.8 µM) | 0.0625 (≈ 0.19 µM) | – | 33.5 | – | 7.61 ± 0.43 (≈ 23.1 µM) | – | – | 6.0 | – | 115 to 120 | 0.0 | 5.19 ± 0.41 (≈ 15.8 µM) | – | 4.5 | 12.0 | 20.5 | – | – | –
CCc1ccc(/C=C/C(=O)c2ccccc2N)cc1 [Compound 4, 2′-Amino-4-ethylchalcone] | 3.98 ± 0.03 (≈ 15.8 µM) | 5.1 ± 0.65 (≈ 20.3 µM) | 0.5 (≈ 1.99 µM) | 0.84 | 32.5 | 4.77 ± 0.37 (≈ 19 µM) | 9.57 ± 0.52 (≈ 38.1 µM) | – | 1.04 | 7.5 | – | 34 to 36 | 0.0 | 4.78 ± 0.19 (≈ 19 µM) | 0.98 | 6.0 | 26.5 | 30.0 | 0.40 | 0.60 | –
Nc1ccccc1C(=O)/C=C/c1ccc(OCc2ccccc2)cc1 [Compound 13, 2′-Amino-4-benzyloxychalcone] | – | – | 0.25 (≈ 0.759 µM) | 0 | – | – | – | – | 0.32 | 16.0 | – | – | 0.0 | – | – | – | 13.0 | 21.5 | 0.92 | 0.78 | MIC [15]: 0.25 µg/mL (≈ 0.759 µM); MIC [16]: 0.5 µg/mL (≈ 1.52 µM)
Nc1ccccc1C(=O)/C=C/c1ccc(C(=O)O)cc1 [Compound 7, 2′-Amino-4-carboxychalcone] | 4.26 ± 0.13 (≈ 15.9 µM) | 7.86 ± 0.35 (≈ 29.4 µM) | 0.125 (≈ 0.468 µM) | 0.0 | – | 7.68 ± 0.34 (≈ 28.7 µM) | 7.78 ± 0.75 (≈ 29.1 µM) | 0.125 (≈ 0.468 µM) | 0.37 | 26.0 | 0.5 (≈ 1.87 µM) | 188 to 191 | 0.0 | 11.1 ± 0.44 (≈ 41.5 µM) | – | – | – | – | – | – | MIC [15]: 0.125 µg/mL (≈ 0.468 µM); MIC [16]: 0.125 µg/mL (≈ 0.468 µM)
